Data set [1] can be described thus: refractive index (Na D-line) (dimensionless). As to conditions: 293.2 K; 101.33 kPa; Liquid; Standard Abbe refractometry.
The conditions of data set [2]: 293.2 K; 101.33 kPa; Liquid.

Molecules are shown by their SMILES. ± gives the expanded uncertainty stated by the source.

Here are results for two compounds from the NIST ThermoML archive (doi:10.1016/j.fluid.2006.01.017).

`CCOC(C)=O` [ethyl acetate]: the refractive index in data set [1] is on record as 1.3702 ± 0.0004. For the same compound, the mass density in data set [2] was 900.6 ± 0.3 kg/m3.
For the compound `CCO` [ethanol], the refractive index in data set [1] is on record as 1.36 ± 0.0004.

The term refractive index denotes a measure of how strongly the sample bends light. A word on the mass density: it is the mass of a sample divided by its volume.
